Experimental data reported in the kinase profiling compilation of Christmann-Franck et al. (2016).

Columns and labels:
Test in all cases: KINOMEscan competition binding
Details in all cases: compound 1.0 µM
[1] = biological target: PRKAA1 (human) (UniProt Q13131)
[2] = tested on: MET (human), P08581 [Y1235D]
[3] = biological target: SGK110 (human) (UniProt P0C264)
[4] = biological target: PRKX (human) (UniProt P51817)
[5] = biological target: STK38L (human) (UniProt Q9Y2H1)
[6] = biological target: MAPK14 (human) (UniProt Q16539)
[7] = biological target: TRPM6 (human) (UniProt Q9BX84)
[8] = biological target: SIK3 (human) (UniProt Q9Y2K2)
[9] = biological target: LIMK1 (human) (UniProt P53667)
[10] = biological target: CDK2 (human) (UniProt P24941)
[11] = biological target: IGF1R (human) (UniProt P08069)
[12] = biological target: IRAK1 (human) (UniProt P51617)
[13] = biological target: ULK2 (human) (UniProt Q8IYT8)
[14] = biological target: STK25 (human) (UniProt O00506)
[15] = biological target: NEK7 (human) (UniProt Q8TDX7)
[16] = biological target: PRKCE (human) (UniProt Q02156)
[17] = biological target: MELK (human) (UniProt Q14680)
[18] = biological target: PLK3 (human) (UniProt Q9H4B4)
[19] = biological target: TESK1 (human) (UniProt Q15569)
[20] = biological target: TYRO3 (human) (UniProt Q06418)
[21] = biological target: MAP3K4 (human) (UniProt Q9Y6R4)
[22] = biological target: PRKD1 (human) (UniProt Q15139)
[23] = tested on: PIK3CA (human), P42336 [C420R]
[24] = biological target: PIP5K1C (human) (UniProt O60331)
[25] = tested on: FLT3 (human), P36888 [N841I]
[26] = biological target: CHUK (human) (UniProt O15111)
[27] = biological target: PIM3 (human) (UniProt Q86V86)
[28] = biological target: CSNK1G1 (human) (UniProt Q9HCP0)
[29] = biological target: MTOR (human) (UniProt P42345)
[30] = biological target: WNK3 (human) (UniProt Q9BYP7)
[31] = biological target: PIP4K2C (human) (UniProt Q8TBX8)
[32] = biological target: PRKD2 (human) (UniProt Q9BZL6)
[33] = biological target: PKN1 (human) (UniProt Q16512)
[34] = biological target: CDK16 (human) (UniProt Q00536)
[35] = biological target: PIK3CB (human) (UniProt P42338)
[36] = biological target: MAP4K5 (human) (UniProt Q9Y4K4)
[37] = biological target: JAK1 JH1 catalytic (human) (UniProt P23458)
[38] = biological target: PRKG2 (human) (UniProt Q13237)
[39] = biological target: RPS6KA5 KD1 (human) (UniProt O75582)

Sequence of CDK16 (human) (Q00536 whole entry, looked up): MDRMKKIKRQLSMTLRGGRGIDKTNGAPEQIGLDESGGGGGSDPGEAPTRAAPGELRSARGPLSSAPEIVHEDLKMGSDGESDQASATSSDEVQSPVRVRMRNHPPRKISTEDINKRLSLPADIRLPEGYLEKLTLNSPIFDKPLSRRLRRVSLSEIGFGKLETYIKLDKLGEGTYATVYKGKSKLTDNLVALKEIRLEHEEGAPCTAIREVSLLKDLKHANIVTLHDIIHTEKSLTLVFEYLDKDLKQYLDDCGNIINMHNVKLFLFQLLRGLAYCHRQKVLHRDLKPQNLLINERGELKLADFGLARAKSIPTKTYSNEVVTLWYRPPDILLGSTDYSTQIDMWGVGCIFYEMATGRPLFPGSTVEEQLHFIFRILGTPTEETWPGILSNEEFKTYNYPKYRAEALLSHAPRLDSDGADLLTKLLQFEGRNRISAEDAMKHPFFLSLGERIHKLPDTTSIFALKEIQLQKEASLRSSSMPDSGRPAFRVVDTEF
Sequence of TYRO3 (human) (Q06418 whole entry, looked up): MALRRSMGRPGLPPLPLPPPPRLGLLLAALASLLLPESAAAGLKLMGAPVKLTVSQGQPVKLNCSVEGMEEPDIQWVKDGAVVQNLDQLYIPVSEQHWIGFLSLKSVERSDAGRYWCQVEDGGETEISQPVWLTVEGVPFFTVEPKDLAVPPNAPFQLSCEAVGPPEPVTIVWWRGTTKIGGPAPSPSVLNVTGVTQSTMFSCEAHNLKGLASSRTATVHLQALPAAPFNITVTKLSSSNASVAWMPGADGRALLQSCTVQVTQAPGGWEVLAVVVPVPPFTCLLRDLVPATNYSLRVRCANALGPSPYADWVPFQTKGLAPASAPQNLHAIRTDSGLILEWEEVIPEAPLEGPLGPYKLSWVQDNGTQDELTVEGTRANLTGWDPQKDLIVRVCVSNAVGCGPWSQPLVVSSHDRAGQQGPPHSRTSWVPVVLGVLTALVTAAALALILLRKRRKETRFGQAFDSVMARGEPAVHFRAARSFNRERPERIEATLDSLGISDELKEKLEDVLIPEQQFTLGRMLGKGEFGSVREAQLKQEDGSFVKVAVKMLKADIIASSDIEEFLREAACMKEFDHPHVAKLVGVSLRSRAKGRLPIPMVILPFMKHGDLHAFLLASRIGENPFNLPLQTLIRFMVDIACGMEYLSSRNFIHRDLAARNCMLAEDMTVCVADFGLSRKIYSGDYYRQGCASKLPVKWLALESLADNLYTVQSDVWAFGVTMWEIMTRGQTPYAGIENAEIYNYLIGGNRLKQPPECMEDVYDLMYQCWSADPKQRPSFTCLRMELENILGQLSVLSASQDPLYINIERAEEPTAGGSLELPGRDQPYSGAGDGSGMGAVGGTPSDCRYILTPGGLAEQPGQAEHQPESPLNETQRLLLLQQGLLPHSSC
Sequence of STK38L (human) (Q9Y2H1 whole entry, looked up): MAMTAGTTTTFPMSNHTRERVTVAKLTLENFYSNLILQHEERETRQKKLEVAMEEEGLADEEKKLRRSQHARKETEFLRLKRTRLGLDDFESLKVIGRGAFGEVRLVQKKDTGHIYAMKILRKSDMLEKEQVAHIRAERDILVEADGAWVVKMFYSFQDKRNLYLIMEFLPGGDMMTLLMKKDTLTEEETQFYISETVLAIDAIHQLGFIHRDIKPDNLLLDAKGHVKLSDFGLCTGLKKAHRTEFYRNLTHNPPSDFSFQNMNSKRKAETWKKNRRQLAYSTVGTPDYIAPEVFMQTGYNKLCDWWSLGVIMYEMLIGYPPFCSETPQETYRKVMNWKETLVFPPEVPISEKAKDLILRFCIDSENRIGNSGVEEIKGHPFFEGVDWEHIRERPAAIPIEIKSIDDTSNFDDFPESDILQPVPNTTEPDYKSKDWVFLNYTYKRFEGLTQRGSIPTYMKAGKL
Sequence of PKN1 (human) (Q16512 whole entry, looked up): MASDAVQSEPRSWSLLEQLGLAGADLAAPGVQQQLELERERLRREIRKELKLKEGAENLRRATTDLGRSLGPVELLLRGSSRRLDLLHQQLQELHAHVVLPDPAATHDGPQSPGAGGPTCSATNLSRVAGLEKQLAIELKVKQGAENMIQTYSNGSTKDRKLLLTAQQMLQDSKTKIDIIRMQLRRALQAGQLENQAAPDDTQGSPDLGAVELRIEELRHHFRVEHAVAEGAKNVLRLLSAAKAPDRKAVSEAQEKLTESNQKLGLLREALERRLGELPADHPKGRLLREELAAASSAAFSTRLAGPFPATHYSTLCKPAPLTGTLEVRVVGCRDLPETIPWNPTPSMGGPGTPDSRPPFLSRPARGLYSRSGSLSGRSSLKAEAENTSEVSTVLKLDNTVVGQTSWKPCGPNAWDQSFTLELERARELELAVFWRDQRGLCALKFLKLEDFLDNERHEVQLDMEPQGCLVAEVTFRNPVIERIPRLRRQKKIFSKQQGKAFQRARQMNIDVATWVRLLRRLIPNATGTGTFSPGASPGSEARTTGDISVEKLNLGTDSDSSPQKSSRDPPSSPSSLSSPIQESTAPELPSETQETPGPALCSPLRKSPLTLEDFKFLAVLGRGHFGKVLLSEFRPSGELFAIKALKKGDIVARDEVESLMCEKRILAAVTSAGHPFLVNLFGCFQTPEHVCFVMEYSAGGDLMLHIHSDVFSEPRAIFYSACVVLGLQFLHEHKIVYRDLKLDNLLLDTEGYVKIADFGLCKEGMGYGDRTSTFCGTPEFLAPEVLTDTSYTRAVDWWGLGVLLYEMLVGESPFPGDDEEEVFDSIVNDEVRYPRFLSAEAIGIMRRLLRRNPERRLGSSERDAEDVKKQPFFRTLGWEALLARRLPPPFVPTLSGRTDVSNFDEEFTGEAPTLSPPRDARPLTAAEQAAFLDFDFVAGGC
Sequence of JAK1 JH1 catalytic (human) (P23458 whole entry, looked up): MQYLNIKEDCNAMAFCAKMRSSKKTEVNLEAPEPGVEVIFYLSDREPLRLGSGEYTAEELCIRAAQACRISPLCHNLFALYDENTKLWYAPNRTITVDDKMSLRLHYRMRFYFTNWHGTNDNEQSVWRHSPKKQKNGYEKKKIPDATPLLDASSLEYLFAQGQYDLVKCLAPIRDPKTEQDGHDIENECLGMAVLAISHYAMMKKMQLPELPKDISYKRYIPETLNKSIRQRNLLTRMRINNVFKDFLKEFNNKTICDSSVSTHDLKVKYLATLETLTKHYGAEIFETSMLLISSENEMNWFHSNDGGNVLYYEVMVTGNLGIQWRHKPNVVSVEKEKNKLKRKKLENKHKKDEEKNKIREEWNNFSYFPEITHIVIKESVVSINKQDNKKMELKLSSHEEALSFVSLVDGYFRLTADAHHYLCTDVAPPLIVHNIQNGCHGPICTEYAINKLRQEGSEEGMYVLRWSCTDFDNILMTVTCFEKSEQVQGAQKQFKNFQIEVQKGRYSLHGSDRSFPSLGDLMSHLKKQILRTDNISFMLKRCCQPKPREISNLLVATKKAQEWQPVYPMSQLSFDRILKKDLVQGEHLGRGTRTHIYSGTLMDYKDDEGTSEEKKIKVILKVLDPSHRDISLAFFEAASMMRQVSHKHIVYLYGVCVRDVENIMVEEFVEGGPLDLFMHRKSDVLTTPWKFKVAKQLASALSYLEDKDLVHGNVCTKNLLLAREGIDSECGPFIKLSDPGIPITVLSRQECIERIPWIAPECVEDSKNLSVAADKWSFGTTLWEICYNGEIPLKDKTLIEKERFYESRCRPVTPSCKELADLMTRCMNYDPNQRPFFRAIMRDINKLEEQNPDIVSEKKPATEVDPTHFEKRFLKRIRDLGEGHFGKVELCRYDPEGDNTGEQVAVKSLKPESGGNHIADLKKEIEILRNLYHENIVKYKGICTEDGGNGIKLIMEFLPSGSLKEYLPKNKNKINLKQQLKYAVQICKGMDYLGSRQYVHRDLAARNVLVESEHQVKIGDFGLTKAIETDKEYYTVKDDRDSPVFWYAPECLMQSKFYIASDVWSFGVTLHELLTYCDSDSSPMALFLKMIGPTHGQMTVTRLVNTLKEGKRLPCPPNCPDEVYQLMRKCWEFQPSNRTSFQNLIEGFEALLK
Sequence of LIMK1 (human) (P53667 whole entry, looked up): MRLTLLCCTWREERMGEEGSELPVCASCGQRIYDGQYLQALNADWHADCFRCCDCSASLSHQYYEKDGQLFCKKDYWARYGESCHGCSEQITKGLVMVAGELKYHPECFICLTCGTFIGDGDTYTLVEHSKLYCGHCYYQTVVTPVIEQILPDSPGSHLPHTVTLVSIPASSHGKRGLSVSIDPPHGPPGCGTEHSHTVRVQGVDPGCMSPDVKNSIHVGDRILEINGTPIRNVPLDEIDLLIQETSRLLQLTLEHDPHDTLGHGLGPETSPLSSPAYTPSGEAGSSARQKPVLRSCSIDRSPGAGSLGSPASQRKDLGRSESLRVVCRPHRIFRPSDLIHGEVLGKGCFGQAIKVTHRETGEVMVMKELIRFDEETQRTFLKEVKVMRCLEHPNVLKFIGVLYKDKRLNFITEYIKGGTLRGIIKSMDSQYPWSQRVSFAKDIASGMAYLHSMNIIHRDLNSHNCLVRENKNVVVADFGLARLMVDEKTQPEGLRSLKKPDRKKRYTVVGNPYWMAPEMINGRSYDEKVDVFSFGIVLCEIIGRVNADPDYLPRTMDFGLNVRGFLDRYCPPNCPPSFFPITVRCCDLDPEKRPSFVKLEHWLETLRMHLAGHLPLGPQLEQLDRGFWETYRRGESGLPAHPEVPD
Sequence of STK25 (human) (O00506 whole entry, looked up): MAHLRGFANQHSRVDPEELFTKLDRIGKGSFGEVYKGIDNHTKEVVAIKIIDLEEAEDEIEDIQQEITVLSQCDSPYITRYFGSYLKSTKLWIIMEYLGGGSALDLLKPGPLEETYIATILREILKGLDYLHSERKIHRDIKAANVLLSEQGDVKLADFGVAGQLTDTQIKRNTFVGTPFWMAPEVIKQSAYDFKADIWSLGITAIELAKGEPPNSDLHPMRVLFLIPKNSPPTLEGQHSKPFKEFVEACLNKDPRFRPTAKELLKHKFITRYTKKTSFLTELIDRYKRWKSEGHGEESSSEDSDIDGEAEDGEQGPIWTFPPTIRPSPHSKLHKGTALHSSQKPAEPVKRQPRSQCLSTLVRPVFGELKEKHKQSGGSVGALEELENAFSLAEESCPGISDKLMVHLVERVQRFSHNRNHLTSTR

Work on `CNc1nc(Nc2ccc(C(=O)N3CCOCC3)cc2OC)ncc1Cl` yielded a kinase still bound, per cent of control [1] of 95%, a kinase still bound, per cent of control [2] of 100% and a kinase still bound, per cent of control [3] of 100%. The kinase still bound, per cent of control [4] was 99%, the kinase still bound, per cent of control [5] was 86% and the kinase still bound, per cent of control [6] was 100%. It also gave a kinase still bound, per cent of control [7] of 87%, a kinase still bound, per cent of control [8] of 100% and a kinase still bound, per cent of control [9] of 91%. It also gave a residual activity [10] of 95%, a residual activity [11] of 100% and a kinase still bound, per cent of control [12] of 100%. For the same molecule, the kinase still bound, per cent of control [13] was 85%, the kinase still bound, per cent of control [14] was 100% and the kinase still bound, per cent of control [15] was 88%. For the same molecule, the kinase still bound, per cent of control [16] was 86%, the kinase still bound, per cent of control [17] was 100% and the kinase still bound, per cent of control [18] was 100%. The kinase still bound, per cent of control [19] was 100%, the kinase still bound, per cent of control [20] was 100% and the kinase still bound, per cent of control [21] was 100%. The kinase still bound, per cent of control [22] was 83%, the kinase still bound, per cent of control [23] was 85% and the kinase still bound, per cent of control [24] was 99%. The kinase still bound, per cent of control [25] was 73%, the kinase still bound, per cent of control [26] was 50% and the kinase still bound, per cent of control [27] was 100%. The kinase still bound, per cent of control [28] was 55%, the kinase still bound, per cent of control [29] was 100% and the kinase still bound, per cent of control [30] was 93%. The kinase still bound, per cent of control [31] was 100%, the kinase still bound, per cent of control [32] was 84% and the kinase still bound, per cent of control [33] was 100%. The residual activity [34] was 100%, the kinase still bound, per cent of control [35] was 100% and the kinase still bound, per cent of control [36] was 73%. The kinase still bound, per cent of control [37] was 82%, the kinase still bound, per cent of control [38] was 94% and the kinase still bound, per cent of control [39] was 100%.
